# Measured values reported in PubChem BioAssay AID2060900 (Molecular Pharmacology Branch, DTP, NCI, 2025).
# Tested on: 521955-158-R2-J5-PDC complex spheroids, viability
# Assay: Anticancer human tumor 521955-158-R2-J5-PDC patient-derived pancreatic carcinoma cell line growth inhibition [RAS]
# Settings: for IC50: curve of first compound; for viability, T/C: stronger effect = lower value
# Procedure, shortened: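 Tumour cells grown as complex spheroids with HUVEC endothelial cells and mesenchymal stem cells, treated with RAS pathway inhibitor combinations. Each agent spans half-log steps from near clinical Cmax, or 10 microM where Cmax is unknown.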
# 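Further: compound exposure lasted seven days before the viability read.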
# 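Wherever viability, T/C is given: spheroids also contain HUVEC endothelial cells and mesenchymal stem cells as stroma.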
structure (smiles),measurement,setting,value
CC(=O)OC12COC1CC(O)C1(C)C(=O)C(O)C3=C(C)C(OC(=O)C(O)C(NC(=O)OC(C)(C)C)c4ccccc4)CC(O)(C(OC(=O)c4ccccc4)C21)C3(C)C (configuration not stated) + CCn1c(-c2cccnc2C(C)OC)c2c3cc(ccc31)N1CCOC(CC(NC(=O)C(C(C)C)N(C)C(=O)C3(F)CCN(C(=O)C#CC(C)(C)N(C)C)CC3)C(=O)N3CCCC(N3)C(=O)OCC(C)(C)C2)C1,IC50,second compound 0.000949 µM,< 31.6 nM
same,IC50,second compound 0.003 µM,< 31.6 nM
same,IC50,second compound 0.00949 µM,< 31.6 nM
same,IC50,second compound 0.03 µM,< 31.6 nM
same,IC50,second compound 0.0949 µM,< 31.6 nM
same,IC50,second compound 0.3 µM,< 31.6 nM
same,"viability, T/C","second compound 0.000949 µM, first compound 0.0316 µM",47.5%
same,"viability, T/C","second compound 0.000949 µM, first compound 0.1 µM",23%
same,"viability, T/C","second compound 0.000949 µM, first compound 0.316 µM",24.6%
same,"viability, T/C","second compound 0.000949 µM, first compound 1 µM",22%
same,"viability, T/C","second compound 0.000949 µM, first compound 3.16 µM",28%
same,"viability, T/C","second compound 0.000949 µM, first compound 10 µM",40.4%
same,"viability, T/C","second compound 0.003 µM, first compound 0.0316 µM",31.7%
same,"viability, T/C","second compound 0.003 µM, first compound 0.1 µM",25.1%
same,"viability, T/C","second compound 0.003 µM, first compound 0.316 µM",27.6%
same,"viability, T/C","second compound 0.003 µM, first compound 1 µM",23.8%
same,"viability, T/C","second compound 0.003 µM, first compound 3.16 µM",28.9%
same,"viability, T/C","second compound 0.003 µM, first compound 10 µM",42.2%
same,"viability, T/C","second compound 0.00949 µM, first compound 0.0316 µM",33.5%
same,"viability, T/C","second compound 0.00949 µM, first compound 0.1 µM",24.6%
same,"viability, T/C","second compound 0.00949 µM, first compound 0.316 µM",23.6%
same,"viability, T/C","second compound 0.00949 µM, first compound 1 µM",25.8%
same,"viability, T/C","second compound 0.00949 µM, first compound 3.16 µM",40%
same,"viability, T/C","second compound 0.00949 µM, first compound 10 µM",38.1%
same,"viability, T/C","second compound 0.03 µM, first compound 0.0316 µM",35.7%
same,"viability, T/C","second compound 0.03 µM, first compound 0.1 µM",20.3%
same,"viability, T/C","second compound 0.03 µM, first compound 0.316 µM",22.8%
same,"viability, T/C","second compound 0.03 µM, first compound 1 µM",22.9%
same,"viability, T/C","second compound 0.03 µM, first compound 3.16 µM",32.3%
same,"viability, T/C","second compound 0.03 µM, first compound 10 µM",41.6%
same,"viability, T/C","second compound 0.0949 µM, first compound 0.0316 µM",39.1%
same,"viability, T/C","second compound 0.0949 µM, first compound 0.1 µM",26.8%
same,"viability, T/C","second compound 0.0949 µM, first compound 0.316 µM",19.3%
same,"viability, T/C","second compound 0.0949 µM, first compound 1 µM",25.5%
same,"viability, T/C","second compound 0.0949 µM, first compound 3.16 µM",38.2%
same,"viability, T/C","second compound 0.0949 µM, first compound 10 µM",41.1%
same,"viability, T/C","second compound 0.3 µM, first compound 0.0316 µM",32.7%
same,"viability, T/C","second compound 0.3 µM, first compound 0.1 µM",22.7%
same,"viability, T/C","second compound 0.3 µM, first compound 0.316 µM",23.4%
same,"viability, T/C","second compound 0.3 µM, first compound 1 µM",32.3%
same,"viability, T/C","second compound 0.3 µM, first compound 3.16 µM",41.9%
same,"viability, T/C","second compound 0.3 µM, first compound 10 µM",39.9%
